# Laboratory results as given in article PMC7615185, “Structural basis for ion selectivity in potassium-selective channelrhodopsins” (Cell, 2023).
# Target: T1, HcKCR1 (Hyphochytrium catenoides, UniProt A0ABF7PQA2, A110C)
# T1 construct: M1-S265; 7TM rhodopsin domain; Sf9, HA signal/FLAG and eGFP-His10-Rho1D4 tags cleaved by 3C, MSP1E3D1/SoyPC nanodisc; residues 6-260 modelled; homotrimer; eYFP fusion in HEK293 for patch clamp
# T1 sequence (A0ABF7PQA2 1-265 A110C): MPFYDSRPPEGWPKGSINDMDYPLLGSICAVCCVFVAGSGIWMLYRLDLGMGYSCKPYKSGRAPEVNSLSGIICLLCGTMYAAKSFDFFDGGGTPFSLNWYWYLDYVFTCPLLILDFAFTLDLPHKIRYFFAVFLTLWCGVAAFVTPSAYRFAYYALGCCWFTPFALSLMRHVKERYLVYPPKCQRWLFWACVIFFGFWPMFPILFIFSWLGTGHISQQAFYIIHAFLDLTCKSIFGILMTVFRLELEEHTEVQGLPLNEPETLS
# Assay: cryo-EM structure, retinal isomer by HPLC
# Type: binding
# Conditions: dark state, nanodisc, pH 7.5; covalent Schiff base to K233
structure (smiles),measurement,value
CC1=C(/C=C/C(C)=C/C=C/C(C)=C/C=O)C(C)(C)CCC1 [all-trans-retinal],"cryo-EM structure, retinal isomer by HPLC",accurate modeling of most residues of both HcKCRs
